Reference: PubChem BioAssay AID1259407 (Chemical Carcinogenesis Research Information System (CCRIS), 2018)
Active and inactive are the calls of the source. The rule behind the calls is not given here. Where a SMILES comes first, the peptide text is derived from it.

Test system: CCRIS mutagenicity, Ames/micronucleus/aberration tests
Assay: CCRIS mutagenicity studies
[1] = Test System: AMES SALMONELLA TYPHIMURIUM, Strain/Indicator: TA98, Metabolic Activation: NONE, Method: PREINCUBATION
[2] = Test System: AMES SALMONELLA TYPHIMURIUM, Strain/Indicator: TA100, Metabolic Activation: NONE, Method: PREINCUBATION
[3] = Test System: AMES SALMONELLA TYPHIMURIUM, Strain/Indicator: TA1535, Metabolic Activation: NONE, Method: PREINCUBATION

CCCCCCC(O)C/C=C\CCCCCCCC(=O)OCC(COC(=O)CCCCCCC/C=C\CC(O)CCCCCC)OC(=O)CCCCCCC/C=C\CC(O)CCCCCC (stereo unspecified)
mutagenic call (Test System: AMES SALMONELLA TYPHIMURIUM, Strain/Indicator: TA97, Metabolic Activation: HAMSTER, LIVER, S-9, AROCLOR 1254 (10 OR 30%), Method: PREINCUBATION): inactive; negative
mutagenic call (Test System: AMES SALMONELLA TYPHIMURIUM, Strain/Indicator: TA97, Metabolic Activation: NONE, Method: PREINCUBATION): inactive; negative
mutagenic call (Test System: AMES SALMONELLA TYPHIMURIUM, Strain/Indicator: TA97, Metabolic Activation: RAT, LIVER, S-9, AROCLOR 1254 (10 OR 30%), Method: PREINCUBATION): inactive; negative
mutagenic call (Test System: AMES SALMONELLA TYPHIMURIUM, Strain/Indicator: TA98, Metabolic Activation: HAMSTER, LIVER, S-9, AROCLOR 1254 (10 OR 30%), Method: PREINCUBATION): inactive; negative
mutagenic call [1]: inactive; negative
mutagenic call (Test System: AMES SALMONELLA TYPHIMURIUM, Strain/Indicator: TA98, Metabolic Activation: RAT, LIVER, S-9, AROCLOR 1254 (10 OR 30%), Method: PREINCUBATION): inactive; negative
mutagenic call (Test System: AMES SALMONELLA TYPHIMURIUM, Strain/Indicator: TA100, Metabolic Activation: HAMSTER, LIVER, S-9, AROCLOR 1254 (10 OR 30%), Method: PREINCUBATION): inactive; negative
mutagenic call [2]: inactive; negative
mutagenic call (Test System: AMES SALMONELLA TYPHIMURIUM, Strain/Indicator: TA100, Metabolic Activation: RAT, LIVER, S-9, AROCLOR 1254 (10 OR 30%), Method: PREINCUBATION): inactive; negative
mutagenic call (Test System: AMES SALMONELLA TYPHIMURIUM, Strain/Indicator: TA1535, Metabolic Activation: HAMSTER, LIVER, S-9, AROCLOR 1254 (10 OR 30%), Method: PREINCUBATION): inactive; negative
mutagenic call [3]: inactive; negative
mutagenic call (Test System: AMES SALMONELLA TYPHIMURIUM, Strain/Indicator: TA1535, Metabolic Activation: RAT, LIVER, S-9, AROCLOR 1254 (10 OR 30%), Method: PREINCUBATION): inactive; negative

O=[N+]([O-])c1cnc2c(c1)nc1ccccn12
mutagenic call (Test System: AMES SALMONELLA TYPHIMURIUM, Strain/Indicator: TA98, Metabolic Activation: NONE, Method: STANDARD PLATE): active; positive
mutagenic call (Test System: AMES SALMONELLA TYPHIMURIUM, Strain/Indicator: TA98, Metabolic Activation: RAT, LIVER, CYTOSOL, AROCLOR 1254, Method: STANDARD PLATE): active; positive
mutagenic call (Test System: AMES SALMONELLA TYPHIMURIUM, Strain/Indicator: TA98, Metabolic Activation: RAT, LIVER, MICROSOMES, AROCLOR 1254, Method: STANDARD PLATE): active; positive
mutagenic call (Test System: AMES SALMONELLA TYPHIMURIUM, Strain/Indicator: TA98, Metabolic Activation: RAT, LIVER, S-9, AROCLOR 1254, Method: STANDARD PLATE): active; positive

CC1(C)CC(N=C=O)CC(C)(CN=C=O)C1 (stereo unspecified)
mutagenic call (Test System: AMES SALMONELLA TYPHIMURIUM, Strain/Indicator: TA98, Metabolic Activation: HAMSTER, LIVER, S-9, AROCLOR 1254 (10%), Method: PREINCUBATION): inactive; negative
mutagenic call [1]: inactive; negative
mutagenic call (Test System: AMES SALMONELLA TYPHIMURIUM, Strain/Indicator: TA98, Metabolic Activation: RAT, LIVER, S-9, AROCLOR 1254 (10%), Method: PREINCUBATION): inactive; negative
mutagenic call (Test System: AMES SALMONELLA TYPHIMURIUM, Strain/Indicator: TA100, Metabolic Activation: HAMSTER, LIVER, S-9, AROCLOR 1254 (10%), Method: PREINCUBATION): inactive; negative
mutagenic call [2]: inactive; negative
mutagenic call (Test System: AMES SALMONELLA TYPHIMURIUM, Strain/Indicator: TA100, Metabolic Activation: RAT, LIVER, S-9, AROCLOR 1254 (10%), Method: PREINCUBATION): inactive; negative
mutagenic call (Test System: AMES SALMONELLA TYPHIMURIUM, Strain/Indicator: TA1535, Metabolic Activation: HAMSTER, LIVER, S-9, AROCLOR 1254 (10%), Method: PREINCUBATION): inactive; negative
mutagenic call [3]: inactive; negative
mutagenic call (Test System: AMES SALMONELLA TYPHIMURIUM, Strain/Indicator: TA1535, Metabolic Activation: RAT, LIVER, S-9, AROCLOR 1254 (10%), Method: PREINCUBATION): inactive; negative
mutagenic call (Test System: AMES SALMONELLA TYPHIMURIUM, Strain/Indicator: TA1537, Metabolic Activation: HAMSTER, LIVER, S-9, AROCLOR 1254 (10%), Method: PREINCUBATION): inactive; negative
mutagenic call (Test System: AMES SALMONELLA TYPHIMURIUM, Strain/Indicator: TA1537, Metabolic Activation: NONE, Method: PREINCUBATION): inactive; negative
mutagenic call (Test System: AMES SALMONELLA TYPHIMURIUM, Strain/Indicator: TA1537, Metabolic Activation: RAT, LIVER, S-9, AROCLOR 1254 (10%), Method: PREINCUBATION): inactive; negative

C[C@H](CCC(=O)O)[C@H]1CC[C@H]2[C@@H]3CC[C@@H]4CC(=O)CC[C@]4(C)[C@H]3C[C@H](O)[C@]12C
mutagenic call (Test System: AMES SALMONELLA TYPHIMURIUM, Strain/Indicator: TA98, Metabolic Activation: NONE, Method: FLUCTUATION TEST): inactive; negative
mutagenic call [1]: inactive; negative
mutagenic call (Test System: AMES SALMONELLA TYPHIMURIUM, Strain/Indicator: TA98, Metabolic Activation: RAT, LIVER, S-9, PCB, Method: PREINCUBATION): inactive; negative
mutagenic call (Test System: AMES SALMONELLA TYPHIMURIUM, Strain/Indicator: TA100, Metabolic Activation: NONE, Method: FLUCTUATION TEST): inactive; negative

CCN(CC)CCNC(=O)c1cc(Cl)c(N)cc1OC
mutagenic call (Test System: CHINESE HAMSTER V-79, Strain/Indicator: V-79 (HGPRT)/6-THIOGUANINE, Metabolic Activation: NONE): active; positive
mutagenic call (Test System: UDS HUMAN HEPATOCYTES, Strain/Indicator: THY INCORP, Metabolic Activation: NONE, Method: AUTORADIOGRAPHY): inactive; negative
mutagenic call (Test System: UDS RAT HEPATOCYTES, Strain/Indicator: THY INCORP, Metabolic Activation: NONE, Method: AUTORADIOGRAPHY): inactive; negative

COC(=O)[C@H](Cc1ccccc1)NC(=O)[C@@H](N)CC(=O)O (H-Asp-Phe-OMe)
mutagenic call (End Point: In vivo micronucleus, Test System: Bone marrow polychromatic erythrocytes, Species: Rat, Strain/Sex: F344/N, Male, Route: Oral): inactive; negative
mutagenic call (End Point: In vivo micronucleus, Test System: Peripheral blood normochromatic erythrocytes, Species: Mouse, Strain/Sex: B6.129-Cdkn2atm1Rdp (N2) Cdkn2a deficient/Female, Route: Oral): inactive; negative
mutagenic call (End Point: In vivo micronucleus, Test System: Peripheral blood normochromatic erythrocytes, Species: Mouse, Strain/Sex: B6.129-Cdkn2atm1Rdp (N2) Cdkn2a deficient/Male, Route: Oral): inactive; negative
mutagenic call (End Point: In vivo micronucleus, Test System: Peripheral blood normochromatic erythrocytes, Species: Mouse, Strain/Sex: B6.129-Trp53tm1Brd (N5) p53 Haploinsufficient/Female, Route: Oral): active; positive (significant trend test and significant (p=0.0004) increase in frequenc
mutagenic call (End Point: In vivo micronucleus, Test System: Peripheral blood normochromatic erythrocytes, Species: Mouse, Strain/Sex: B6.129-Trp53tm1Brd (N5) p53 Haploinsufficient/Male, Route: Oral): inactive; negative
mutagenic call (End Point: In vivo micronucleus, Test System: Peripheral blood normochromatic erythrocytes, Species: Mouse, Strain/Sex: FVB Tg.Ac hemizygous/Female, Route: Oral): inactive; negative
mutagenic call (End Point: In vivo micronucleus, Test System: Peripheral blood normochromatic erythrocytes, Species: Mouse, Strain/Sex: FVB Tg.Ac hemizygous/Male, Route: Oral): inactive; negative
mutagenic call (Test System: Ames Salmonella typhimurium, Strain/Indicator: TA97, Metabolic Activation: Hamster, liver, S-9, Aroclor 1254, 10 and 30%, Method: Preincubation): inactive; negative
mutagenic call (Test System: Ames Salmonella typhimurium, Strain/Indicator: TA97, Metabolic Activation: None, Method: Preincubation): inactive; negative
mutagenic call (Test System: Ames Salmonella typhimurium, Strain/Indicator: TA97, Metabolic Activation: Rat, liver, S-9, Aroclor 1254 (10% or 30%), Method: Preincubation): active; positive in two trials with 30% s-9
mutagenic call (Test System: Ames Salmonella typhimurium, Strain/Indicator: TA98, Metabolic Activation: Hamster, liver, S-9, Aroclor 1254, 10 and 30%, Method: Preincubation): inactive; negative
mutagenic call (Test System: Ames Salmonella typhimurium, Strain/Indicator: TA98, Metabolic Activation: None, Method: Preincubation): inactive; negative
mutagenic call (Test System: Ames Salmonella typhimurium, Strain/Indicator: TA98, Metabolic Activation: Rat, liver, S-9, Aroclor 1254, 10 and 30%, Method: Preincubation): inactive; negative
mutagenic call (Test System: Ames Salmonella typhimurium, Strain/Indicator: TA100, Metabolic Activation: Hamster, liver, S-9, Aroclor 1254, 10 and 30%, Method: Preincubation): inactive; negative
mutagenic call (Test System: Ames Salmonella typhimurium, Strain/Indicator: TA100, Metabolic Activation: None, Method: Preincubation): inactive; negative
mutagenic call (Test System: Ames Salmonella typhimurium, Strain/Indicator: TA100, Metabolic Activation: Rat, liver, S-9, Aroclor 1254, 10 and 30%, Method: Preincubation): inactive; negative
mutagenic call (Test System: Ames Salmonella typhimurium, Strain/Indicator: TA1535, Metabolic Activation: Hamster, Liver, S-9, Aroclor 1254, 10 and 30%, Method: Preincubation): inactive; negative
mutagenic call (Test System: Ames Salmonella typhimurium, Strain/Indicator: TA1535, Metabolic Activation: None, Method: Preincubation): inactive; negative
mutagenic call (Test System: Ames Salmonella typhimurium, Strain/Indicator: TA1535, Metabolic Activation: Rat, liver, S-9, Aroclor 1254, 10 and 30%, Method: Preincubation): inactive; negative
mutagenic call (Test System: Ames Salmonella typhimurium, Strain/Indicator: TA1537, Metabolic Activation: Rat, liver, S-9, Aroclor 1254, 30%, Method: Preincubation): inactive; negative

CC1(c2ccc(-c3ccccc3)cc2)CO1 (stereo unspecified)
mutagenic call [2]: active; positive
